Measured values from patent publication US20040014212A1, “Preparation and xenotransplantation or porcine islets” (priority 2000, published 2004).

Experiments:
porcine islets [1] = assay: Static glucose stimulation (SGS): insulin secretion of cultured porcine islets; type: cell-based; conditions: for effect of exposure beyond 24 hrs on insulin production in response to glucose: post isolation
porcine islets [2] = assay: as above; type: cell-based
Description: Static glucose stimulation (SGS) is used to assess in vitro function of the porcine islets by exposing them to low and high concentrations of glucose and theophylline. Determination of the in vitro insulin secretory capacity is undertaken on both free islets (after 3 days in culture) and after their subsequent encapsulation or confinement.
Keep the cells 3 days in culture before Static Glucose Stimulation (SGS). SGS involves exposure of the cells to low and high concentration of glucose to check insulin production. Using 0.1 ug/ml concentration add IGF1 and GPE to two plates 24 hours before SGS (day 2 after isolation)

[3] = Incubated 24 hrs with 1.0 ug/ml IgF-1

Compound	persistence of increased insulin production post exposure (porcine islets [1]) [days]	Insulin secretion In response to 19.4 mM Glucose + 10 mM Theophyline After 3 days culture Post isolation (porcine islets [1]; Incubated 24 hrs With 0.1 ug/ml IgF-2 day 1, second sub-table) [uU/hr/100 IEQ]	Insulin secretion In response to 19.4 mM Glucose + 10 mM Theophyline After 3 days culture Post isolation (porcine islets [1]; Incubated 7 days with 0.1 ug/ml IgF-2) [uU/hr/100 IEQ]	effect of exposure beyond 24 hrs on insulin production in response to glucose (porcine islets [1])	effect on insulin production of porcine islet cells (porcine islets [2]; 0.1 μg/ml during culturing, initial exposure of 24 hrs)	increase in insulin secretion in response to glucose challenge (porcine islets [1]; Lidocaine during digestion, after 3 days in culture) [fold]	Insulin secretion in response to 19.4 mM Glucose + 10 mM Theophyline After 3 days culture Post isolation (porcine islets [1]; islets from Collagenase digestion, with or without 1 mM Lidocaine) [uU/hr/100 IEQ]	Insulin secretion In response to 19.4 mM Glucose + 10 mM Theophyline, increase Compared to control (porcine islets [1]; 3 days post IgF-1 Exposure)	Insulin secretion In response to 19.4 mM Glucose + 10 mM Theophyline, increase Compared to control (porcine islets [1]; 14 days post IgF-1 Exposure)	Insulin secretion In response to 19.4 mM Glucose + 10 mM Theophyline 7 days post isolation (porcine islets [1]; Incubated 7 days with 0.1 ug/ml IgF-1) [uU/hr/100 IEQ]	effect of increasing the concentration in culture on insulin response (porcine islets [1]; above the sufficient concentration)	effect of withdrawal of Nicotinamide from the culture media on islet insulin production (porcine islets [2])	concentration in culture sufficient to produce optimal insulin secretion during glucose challenge (porcine islets [2]; IgF-1 in culture) [µg/mL]	Insulin secretion In response to 19.4 mM Glucose + 10 mM Theophyline 7 days post isolation (porcine islets [2]; [3]) [uU/hr/100 IEQ]	Insulin secretion In response to 19.4 mM Glucose + 10 mM Theophyline After 3 days (porcine islets [2]; [3]) [uU/hr/100 IEQ]	Insulin secretion In response to 19.4 mM Glucose + 10 mM Theophyline After 3 days culture Post isolation (porcine islets [2]; Incubated 3 days With 0.1 ug/ml IgF-1 Without Nicotinamide) [uU/hr/100 IEQ]	increase of insulin response to glucose (porcine islets [2]; porcine islets in culture exposed to IgF-1) [fold]
IgF-2: insulin-like growth factor II	≤ 3	32	38.4	failed to increase	appeared to increase												
CCN(CC)CC(=O)Nc1c(C)cccc1C [Lidocaine, reference compound]						3	163.8										
IgF-1: Human Insulin-like Growth Factor I, a potent mitogenic growth factor	≥ 14			no increased benefit				1.5-fold increase	1.3-fold increase	58	No further benefit	eliminated the benefit of IgF-1	0.1	57.5	56.8	47.6	≤ 3
